Results on 20 compounds are retold here after patent US20250163051A1, “PYRIMIDO AROMATIC RING COMPOUND AND USE THEREOF IN DRUG” (SUNSHINE LAKE PHARMA CO., LTD., priority 2022, published 2025).

One series addresses T1, hTLR7 (Homo sapiens, UniProt Q9NYK1).
T1 construct: expressed in transfected cells; host or cells: HEK-Blue hTLR7 cells
T1 sequence (Q9NYK1 27-1049): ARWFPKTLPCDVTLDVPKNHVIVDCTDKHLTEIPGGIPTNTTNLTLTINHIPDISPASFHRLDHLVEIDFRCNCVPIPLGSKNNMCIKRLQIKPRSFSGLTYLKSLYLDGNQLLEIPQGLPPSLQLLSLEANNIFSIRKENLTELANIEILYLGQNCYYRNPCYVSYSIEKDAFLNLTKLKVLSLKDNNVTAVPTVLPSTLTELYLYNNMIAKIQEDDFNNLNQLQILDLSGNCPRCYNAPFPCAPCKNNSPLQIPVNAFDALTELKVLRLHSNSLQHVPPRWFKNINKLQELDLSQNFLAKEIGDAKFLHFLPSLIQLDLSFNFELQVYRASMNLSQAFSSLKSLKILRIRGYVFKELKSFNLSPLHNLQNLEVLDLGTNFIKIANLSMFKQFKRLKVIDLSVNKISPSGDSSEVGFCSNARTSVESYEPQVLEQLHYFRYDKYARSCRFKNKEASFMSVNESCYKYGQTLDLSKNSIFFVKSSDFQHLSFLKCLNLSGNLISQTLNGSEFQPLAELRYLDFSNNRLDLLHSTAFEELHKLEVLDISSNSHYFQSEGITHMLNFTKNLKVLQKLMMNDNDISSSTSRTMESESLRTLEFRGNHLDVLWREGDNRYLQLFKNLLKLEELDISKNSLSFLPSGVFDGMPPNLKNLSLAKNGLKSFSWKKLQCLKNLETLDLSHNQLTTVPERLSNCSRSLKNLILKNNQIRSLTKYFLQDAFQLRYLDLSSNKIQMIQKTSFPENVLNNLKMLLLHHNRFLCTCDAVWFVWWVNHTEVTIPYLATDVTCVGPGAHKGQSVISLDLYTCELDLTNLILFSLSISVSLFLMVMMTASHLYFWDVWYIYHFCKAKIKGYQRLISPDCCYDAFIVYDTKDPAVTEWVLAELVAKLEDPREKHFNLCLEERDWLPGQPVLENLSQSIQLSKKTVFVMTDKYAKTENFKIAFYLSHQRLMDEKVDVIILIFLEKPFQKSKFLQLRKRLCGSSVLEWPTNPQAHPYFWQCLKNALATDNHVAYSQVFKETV
As to the kind of experiment: Agonistic activity on human TLR7 in HEK-Blue hTLR7 cells (QUANTI-Blue). It counts as cell-based. The note with it: 24 h incubation, OD650, read-out: hTLR 7 EC50.

Series [1] is described as follows: Cell toxicity (Celltiter-Glo) in HEK-Blue hTLR8 cells. The note with it: human. For orientation: ATP-based viability assays read luminescence as a measure of living cells.
Description: (§1) Purpose: HEK-Blue™ hTLR7 and HEK-Blue™ hTLR8 cells were used to detect the agonist and cytotoxic activities of compounds against hTLR7 and hTLR8.
(§2) The experimental steps were as shown below: • 1) Preparation of compound: The compound was prepared into a 20 mM stock solution with DMSO, and then the stock solution was diluted 3-fold in a gradient and added to a 96-well plate, for a total of 10 concentrations, with duplicate wells for each concentration. For negative control wells, 0.5 μL DMSO was added to each well. The final DMSO concentration was 0.5%. • 2) HEK-Blue™ hTLR7 or HEK-Blue™ hTLR8 cells were suspended in culture medium and then seeded into 96-well plates containing compounds at a cell count of 50,000 per well. The compounds and cells were incubated for 24 h at 37° C., 5% Co2. • 3) QUANTI-Blue was used for the detection solution: to a mixture of 1 mL of QB reagent and 1 mL of QB buffer was added 98 mL of sterile water, the mixture was mixed and dissolved, and then placed at room temperature for 10 min. • 4) Activity test of the compound: 20 μL of the culture supernatant in step 2) was added to each well of a 96-well plate containing 180 μL of QUANTI-Blue detection solution. After incubation at 37° C. for 1 h, the absorbance at 650 nm (OD650) was detected using a multifunctional microplate reader Flextation III. • 5) Detection of cell activity: The chemiluminescent signal (RLU) was detected using the multifunctional microplate reader Flextation III according to the instructions of Celltiter-Glo. • 6) Data analysis
Detection of cell activity: The calculation formula for cell activity % is as follows.
The cell activity % values were analyzed using GraphPad Prism software, and the compound dose-effect curves were fitted to calculate the CC50 values of the compounds.
Cell activity %=RLU compound/RLU DMSO Control*100%
For a further series, the target named is T2, hTLR8 (Homo sapiens, UniProt Q9NR97).
T2 construct: expressed in transfected cells; host or cells: HEK-Blue hTLR8 cells
T2 sequence (Q9NR97 27-1041): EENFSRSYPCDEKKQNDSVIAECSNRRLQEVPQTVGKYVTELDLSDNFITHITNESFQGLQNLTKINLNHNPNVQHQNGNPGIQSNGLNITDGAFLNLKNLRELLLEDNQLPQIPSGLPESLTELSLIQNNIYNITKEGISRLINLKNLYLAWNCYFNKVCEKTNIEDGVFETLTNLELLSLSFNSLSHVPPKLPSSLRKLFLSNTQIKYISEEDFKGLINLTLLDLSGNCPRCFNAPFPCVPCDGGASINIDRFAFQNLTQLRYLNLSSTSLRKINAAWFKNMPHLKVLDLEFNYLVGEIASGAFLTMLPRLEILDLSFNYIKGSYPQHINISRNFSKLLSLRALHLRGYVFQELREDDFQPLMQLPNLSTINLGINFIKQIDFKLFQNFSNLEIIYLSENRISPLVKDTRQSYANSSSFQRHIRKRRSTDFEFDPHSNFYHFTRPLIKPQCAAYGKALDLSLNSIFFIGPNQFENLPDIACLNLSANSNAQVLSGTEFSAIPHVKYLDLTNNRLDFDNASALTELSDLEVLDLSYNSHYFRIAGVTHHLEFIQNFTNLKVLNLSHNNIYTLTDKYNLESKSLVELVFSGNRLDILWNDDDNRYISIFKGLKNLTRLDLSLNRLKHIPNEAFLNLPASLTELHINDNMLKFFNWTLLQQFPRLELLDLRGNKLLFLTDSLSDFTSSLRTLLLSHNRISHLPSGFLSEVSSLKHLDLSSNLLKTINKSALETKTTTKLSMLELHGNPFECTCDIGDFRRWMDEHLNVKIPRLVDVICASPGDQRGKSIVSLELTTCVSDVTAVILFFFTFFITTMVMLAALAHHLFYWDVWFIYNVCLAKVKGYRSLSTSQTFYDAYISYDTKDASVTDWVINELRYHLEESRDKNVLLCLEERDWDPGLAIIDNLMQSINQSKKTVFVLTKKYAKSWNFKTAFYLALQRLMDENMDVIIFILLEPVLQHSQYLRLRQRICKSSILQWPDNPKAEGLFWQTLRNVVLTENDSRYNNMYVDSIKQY
Briefly: Agonistic activity on human TLR8 in HEK-Blue hTLR8 cells (QUANTI-Blue). The class given is cell-based. The settings on record: 24 h incubation, OD650, read-out: hTLR 8 EC50.

A value given as a limit tells only on which side of the number the result lay.

Description for hTLR7: as §1, §2
Activity of compounds: OD650 values were analyzed using GraphPad Prism software, and the compound dose-effect curves were fitted to calculate the EC50 values of the compounds.

By EC50 is commonly meant the concentration that produces a half-maximal response. What is called CC50 is the concentration that lowers cell viability or growth by half. A low value points to greater toxicity to the cells. Consider `CCCC[C@](C)(CO)Nc1nc(N)nc2cc(-c3cc(=O)[nH]cc3CN(C)C)ccc12` [Example 67, (R)-4-(2-Amino-4-((1-hydroxy-2-methylhexan-2-yl)amino)quinazolin-7-yl)-5-((dimethylamino)methyl)pyridin-2(1H)-one], for which the EC50 on hTLR7 is more than 100 µM; on hTLR8, 0.056 µM. Moreover, in series [1], the CC50 at 24 h was more than 100 µM.
`C=CCCN(C)Cc1cn(C)c(=O)cc1-c1ccc2c(N[C@](C)(CCCC)CNC(=O)c3cnn(C)c3)nc(N)nc2c1` [Example 46]: the EC50 on hTLR7 was more than 100 µM; on hTLR8, 0.569 µM. The compound also had a CC50 at 24 h in series [1] of more than 100 µM.
On to `CCCC[C@](C)(CO)Nc1nc(N)nc2cc(-c3cc(=O)[nH]cc3CNCCOC)ccc12` [Example 57, (R)-4-(2-Amino-4-((1-hydroxy-2-methylhexan-2-yl)amino)quinazolin-7-yl)-5-(((2-methoxyethyl)amino)methyl)pyridin-2(1H)-one], for which the EC50 is more than 100 µM at hTLR7 and 1.86 µM at hTLR8. The compound further had a CC50 at 24 h in series [1] of more than 100 µM.
On to `CCCC[C@](C)(CO)Nc1nc(N)nc2cc(-c3cc(=O)[nH]cc3CN3CCCCC3)ccc12` [Example 17], for which the results for the EC50 at hTLR7 and on hTLR8 were more than 100 µM and 0.22 µM, respectively. Besides, the CC50 at 24 h in series [1] was more than 100 µM.
In the case of `C=CCCN(C)Cc1c[nH]c(=O)cc1-c1cnc2c(N[C@@H](CO)CCCC)nc(N)nc2c1` [Example 42, (R)-4-(2-Amino-4-((1-hydroxyhexan-2-yl)amino)pyrido[3,2-d]pyrimidin-7-yl)-5-((but-3-en-1-yl (methyl)amino)methyl)pyridin-2(1H)-one], the values for the concentration giving a half-maximal response (EC50) on hTLR7 and on hTLR8 were more than 100 µM and 0.595 µM, respectively. The CC50 at 24 h in series [1] was more than 100 µM.
`C=CCCOCc1c[nH]c(=O)cc1-c1cnc2c(N[C@@](C)(CO)CCCC)nc(N)nc2c1` [Example 41, (R)-4-(2-Amino-4-((1-hydroxy-2-methylhexan-2-yl)amino)pyrido[3,2-d]pyrimidin-7-yl)-5-((but-3-en-1-yloxy)methyl)pyridin-2(1H)-one]: the values for the EC50 at hTLR7 and at hTLR8 were 29.9 µM and 0.354 µM, respectively. Besides, the CC50 at 24 h in series [1] is more than 100 µM.
Take `CCCC[C@](C)(CO)Nc1nc(N)nc2cc(-c3cc(=S)[nH]cc3CN(C)CCOC)ccc12` [Example 65, (R)-4-(2-Amino-4-((1-hydroxy-2-methylhexan-2-yl)amino)quinazolin-7-yl)-5-(((2-methoxyethyl)(methyl)amino)methyl)pyridine-2(1H)-thione]: the values for the EC50 on hTLR7 and on hTLR8 were more than 100 µM and 0.212 µM, respectively. The compound further came in with a 50% cytotoxic concentration (CC50) at 24 h in series [1] of more than 100 µM.
As to `CCCC[C@](C)(CO)Nc1nc(N)nc2cc(-c3cc(=O)[nH]cc3CN(C)CCNC)cnc12` [Example 20], the EC50 was more than 100 µM at hTLR7 and 2.85 µM at hTLR8. In series [1], this compound gave a cytotoxic concentration (CC50) at 24 h of more than 100 µM.
As to `C=CCCN(C)Cc1cn(C)c(=O)cc1-c1cnc2c(N[C@](C)(CCCC)CNC(=O)c3cnn(C)c3)nc(N)nc2c1` [Example 45], the EC50 was more than 100 µM on hTLR7 and 0.097 µM at hTLR8. In addition, the CC50 at 24 h in series [1] is more than 100 µM.
With `CCCC[C@](C)(CO)Nc1nc(N)nc2cc(-c3cc(=O)[nH]cc3CN3CCN(C(C)(C)C)CC3)cnc12` [Example 23], the EC50 is more than 100 µM on hTLR7 and 0.291 µM at hTLR8. This compound returned a CC50 at 24 h in series [1] of more than 100 µM.
Consider `CCCC[C@](C)(CO)Nc1nc(N)nc2cc(-c3cc(=O)[nH]cc3CN(C)CCO)ccc12` [Example 60, (R)-4-(2-Amino-4-((1-hydroxy-2-methylhexan-2-yl)amino)quinazolin-7-yl)-5-(((2-hydroxyethyl)(methyl)amino)methyl)pyridin-2(1H)-one], for which the EC50 at hTLR7 is more than 100 µM; on hTLR8, 0.292 µM. The compound also displayed a CC50 at 24 h in series [1] of more than 100 µM.
For the compound `C=CCCN(CC)Cc1c[nH]c(=O)cc1-c1cnc2c(N[C@@](C)(CO)CCCC)nc(N)nc2c1` [Example 18], the figures for the EC50 on hTLR7 and at hTLR8 were more than 100 µM and 0.132 µM, respectively. The compound also showed a CC50 at 24 h in series [1] of more than 100 µM.
Regarding `CCCCNCc1c[nH]c(=O)cc1-c1ccc2c(N[C@@](C)(CO)CCCC)nc(N)nc2c1` [Example 58, (R)-4-(2-Amino-4-((1-hydroxy-2-methylhexan-2-yl)amino)quinazolin-7-yl)-5-((butylamino)methyl)pyridin-2(1H)-one], the results for the EC50 on hTLR7 and on hTLR8 were more than 100 µM and 0.918 µM, respectively. In series [1], this compound gave a CC50 at 24 h of more than 100 µM.
Regarding `C=CCCN(Cc1c[nH]c(=O)cc1-c1cnc2c(N[C@@](C)(CO)CCCC)nc(N)nc2c1)C(C)C` [Example 19], the results for the EC50 on hTLR7 and at hTLR8 were more than 100 µM and 0.255 µM, respectively. The compound further registered a CC50 at 24 h in series [1] of more than 100 µM.
As for `C=CCC(=O)N(C)Cc1c[nH]c(=O)cc1-c1cnc2c(N[C@@](C)(CO)CCCC)nc(N)nc2c1` [Example 40, (R)—N-((4-(2-Amino-4-((1-hydroxy-2-methylhexan-2-yl)amino)pyrido[3,2-d]pyrimidin-7-yl)-6-oxo-1,6-dihydropyridin-3-yl)methyl)-N-methylbut-3-enamide], the EC50 on hTLR7 is more than 100 µM; on hTLR8, 1.52 µM. In series [1], this compound yielded a CC50 at 24 h of more than 100 µM.
Take `CCCC[C@](C)(CO)Nc1nc(N)nc2cc(-c3cc(=O)[nH]cc3COC)ccc12` [Example 68, (R)-4-(2-Amino-4-((1-hydroxy-2-methylhexan-2-yl)amino)quinazolin-7-yl)-5-(methoxymethyl) pyridin-2(1H)-one]: the EC50 at hTLR7 turned out to be 14.2 µM; on hTLR8, 0.042 µM. In series [1], this compound returned a CC50 at 24 h of more than 100 µM.
For `CCCC[C@](C)(CO)Nc1nc(N)nc2cc(-c3cc(=O)[nH]cc3CN3CCSCC3)cnc12` [Example 25], in that order: more than 100 µM, 0.13 µM and more than 100 µM.
For `CC#CCN(C)Cc1c[nH]c(=O)cc1-c1cnc2c(N[C@@](C)(CO)CCCC)nc(N)nc2c1` [Example 27], in that order: more than 100 µM, 4.25 µM and more than 100 µM.
Consider `C=CCCN(C)C(=O)c1c[nH]c(=O)cc1-c1cnc2c(N[C@@](C)(CO)CCCC)nc(N)nc2c1` [Example 38, (R)-4-(2-Amino-4-((1-hydroxy-2-methylhexan-2-yl)amino)pyrido[3,2-d]pyrimidin-7-yl)-N-(but-3-en-1-yl)-N-methyl-6-oxo-1,6-dihydropyridine-3-carboxamide], for which the results for the EC50 on hTLR7 and at hTLR8 were more than 100 µM and 2.99 µM, respectively. This compound also returned a CC50 at 24 h in series [1] of more than 100 µM.
For `CCCC[C@](C)(CO)Nc1nc(N)nc2cc(-c3cc(=O)[nH]cc3CSC)cnc12` [Example 52, (R)-4-(2-Amino-4-((1-hydroxy-2-methylhexan-2-yl)amino)pyrido[3,2-d]pyrimidin-7-yl)-5-((methylthio)methyl)pyridin-2(1H)-one], the EC50 was determined as 18.4 µM at hTLR7 and 0.03 µM at hTLR8. This compound also registered a CC50 at 24 h in series [1] of more than 100 µM.
